Reference: patent US9873680B2 (Gilead Sciences, Inc., priority 2014, dated 2018)
Where two headings read alike, the source gives them in different places.

Legend:
[1] = test system: HIV-IIIb; assay: Test A: Antiviral Assay in MT4 Cells; assay type: cell-based, HIV-1; settings: for inhibition at 0.2 µM: 0.2 μM drug concentration; for inhibition at 2 µM: 2 μM drug concentration, read-out: Response at 2 μM (percent inhibition of virus-induced cell killing)
Outline: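 MT-4 cells were preinfected with HIV-IIIb […]. Cell viability, as protection from viral cytopathic effect, was read by CellTiter-Glo chemiluminescence.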

[2] = Test B: Cytotoxicity Assay; assay type: cell-based; settings: human, uninfected MT-4 cells, CellTiter-Glo
Experimental: Test B: Cytotoxicity Assay Compound cytotoxicity and the corresponding CC50 values was determined using the same protocol as described in the antiviral assay (Test A) except that uninfected cells were used.

[3] = Human immunodeficiency virus 1, IIIB, MT4, comparison with previously published compounds, read-out: Response at 0.2 μM (percent inhibition of virus-induced cell killing)
[4] = Human immunodeficiency virus 1, IIIB, MT4, comparison with previously published compounds
[5] = Human immunodeficiency virus 1, MT4, 120 h, MT-4 cells infected with HIV-IIIb, 5 days, values normalized to 100%, average over time, read-out: % inhibition at 0.2 μM (percent inhibition of virus-induced cell killing)

| Compound | inhibition at 0.2 µM [1, 3] | inhibition at 2 µM [1, 4] | inhibition at 0.2 µM [1, 5] | CC50 at 5 days [2] |
| --- | --- | --- | --- | --- |
| NC(=O)c1cc(-c2ccc(C#CC3(O)CC(F)(F)C3)nc2[C@H](Cc2cc(F)cc(F)c2)NC(=O)Cn2nc(C(F)(F)F)c3c2C(F)(F)[C@@H]2C[C@H]32)ccc1F [Compound 107, 5-(6-((3,3-difluoro-1-hydroxycyclobutyl)ethynyl)-2-((S)-1-(2-((3bS,4aR)-5,5-difluoro-3-(trifluoromethyl)-3b,4,4a,5-tetrahydro-1H-cyclopropa[3,4]cyclopenta[1,2-c]pyrazol-1-yl)acetamido)-2-(3,5-difluorophenyl)ethyl)pyridin-3-yl)-2-fluorobenzamide] | 99% | 99% | 99% | 3.64 µM |
| CC1CC(O)(C#Cc2ccc(-c3ccc(Cl)c4c(NS(C)(=O)=O)nn(C)c34)c([C@H](Cc3cc(F)cc(F)c3)NC(=O)Cn3nc(C(F)(F)F)c4c3C(F)(F)[C@@H]3C[C@H]43)n2)CC(C)O1 (stereo partly drawn) [Compound 48C, N-((1S)-1-(3-(4-chloro-1-methyl-3-(methylsulfonamido)-1H-indazol-7-yl)-6-((4-hydroxy-2,6-dimethyltetrahydro-2H-pyran-4-yl)ethynyl)pyridin-2-yl)-2-(3,5-difluorophenyl)ethyl)-2-((3bS,4aR)-5,5-difluoro-3-(trifluoromethyl)-3b,4,4a,5-tetrahydro-1H-cyclopropa[3,4]cyclopenta[1,2-c]pyrazol-1-yl)acetamide] |  |  | 92% | 7.27 µM |
| Cn1nc(NS(C)(=O)=O)c2cccc(-c3ccc(C#CC4(O)COC4)nc3[C@H](Cc3cc(F)cc(F)c3)NC(=O)Cn3nc(C(F)(F)F)c4c3C(F)(F)[C@@H]3C[C@H]43)c21 [Compound 20E, 2-((3bS,4aR)-5,5-difluoro-3-(trifluoromethyl)-3b,4,4a,5-tetrahydro-1H-cyclopropa[3,4]cyclopenta[1,2-c]pyrazol-1-yl)-N—((S)-2-(3,5-difluorophenyl)-1-(6-((3-hydroxyoxetan-3-yl)ethynyl)-3-(1-methyl-3-(methylsulfonamido)-1H-indazol-7-yl)pyridin-2-yl)ethyl)acetamide] |  |  | 94% | 27.7 µM |
| Cn1cnc(C#Cc2ccc(-c3ccc(Cl)c4c(NS(C)(=O)=O)nn(C)c34)c([C@H](Cc3cc(F)cc(F)c3)NC(=O)Cn3nc(C(F)F)c4c3C(F)(F)[C@@H]3C[C@H]43)n2)c1 [Compound 78, N—((S)-1-(3-(4-chloro-1-methyl-3-(methylsulfonamido)-1H-indazol-7-yl)-6-((1-methyl-1H-imidazol-4-yl)ethynyl)pyridin-2-yl)-2-(3,5-difluorophenyl)ethyl)-2-((3bS,4aR)-3-(difluoromethyl)-5,5-difluoro-3b,4,4a,5-tetrahydro-1H-cyclopropa[3,4]cyclopenta[1,2-c]pyrazol-1-yl)acetamide] |  |  | 87% | > 36.6 µM |
| Cc1nccn1C(C)(C)C#Cc1ccc(-c2ccc(Cl)c3c(NS(C)(=O)=O)nn(C)c23)c([C@H](Cc2cc(F)cc(F)c2)NC(=O)Cn2nc(C(F)F)c3c2C(F)(F)[C@@H]2C[C@H]32)n1 [Compound 89B] |  |  | 87% | 8.31 µM |
| O=C(Cn1nc(C(F)F)c2c1C(F)(F)CCC2(F)F)N[C@@H](Cc1cc(F)cc(F)c1)c1ncc(C#CC2CC2)cc1-c1ccc2c(c1)C(=O)NC2 [Compound 2G, (S)—N-(1-(5-(cyclopropylethynyl)-3-(3-oxoisoindolin-5-yl)pyridin-2-yl)-2-(3,5-difluorophenyl)ethyl)-2-(3-(difluoromethyl)-4,4,7,7-tetrafluoro-4,5,6,7-tetrahydro-1H-indazol-1-yl)acetamide] | 0% | 6% | 0% | 38.4 µM |
| Cn1nc(NS(C)(=O)=O)c2c(Cl)ccc(-c3ccc(C#CC(C)(C)N4CCOC4=O)nc3[C@H](Cc3cc(F)cc(F)c3)NC(=O)Cn3nc(C(F)(F)F)c4c3C(F)(F)[C@@H]3C[C@H]43)c21 [Compound 63, N—((S)-1-(3-(4-chloro-1-methyl-3-(methylsulfonamido)-1H-indazol-7-yl)-6-(3-methyl-3-(2-oxooxazolidin-3-yl)but-1-yn-1-yl)pyridin-2-yl)-2-(3,5-difluorophenyl)ethyl)-2-((3bS,4aR)-5,5-difluoro-3-(trifluoromethyl)-3b,4,4a,5-tetrahydro-1H-cyclopropa[3,4]cyclopenta[1,2-c]pyrazol-1-yl)acetamide] |  |  | 90% | 20.7 µM |
| CC(O)(C#Cc1ccc(-c2ccc(F)c(C(N)=O)c2)c([C@H](Cc2cc(F)cc(F)c2)NC(=O)Cn2nc(C(F)(F)F)c3c2C(F)(F)[C@@H]2C[C@H]32)n1)c1ccccc1 (stereo partly drawn) [Compound 17, 5-(2-((S)-1-(2-((3bS,4aR)-5,5-difluoro-3-(trifluoromethyl)-3b,4,4a,5-tetrahydro-1H-cyclopropa[3,4]cyclopenta[1,2-c]pyrazol-1-yl)acetamido)-2-(3,5-difluorophenyl)ethyl)-6-(3-hydroxy-3-phenylbut-1-yn-1-yl)pyridin-3-yl)-2-fluorobenzamide] | 66% | 73% | 66% | 3.06 µM |
| Cn1nc(NS(C)(=O)=O)c2c(Cl)ccc(-c3ccc(C#CC4(O)CCNC4)nc3[C@H](Cc3cc(F)cc(F)c3)NC(=O)Cn3nc(C(F)(F)F)c4c3C(F)(F)[C@@H]3C[C@H]43)c21 (stereo partly drawn) [Compound 58, N-((1S)-1-(3-(4-chloro-1-methyl-3-(methylsulfonamido)-1H-indazol-7-yl)-6-((3-hydroxypyrrolidin-3-yl)ethynyl)pyridin-2-yl)-2-(3,5-difluorophenyl)ethyl)-2-((3bS,4aR)-5,5-difluoro-3-(trifluoromethyl)-3b,4,4a,5-tetrahydro-1H-cyclopropa[3,4]cyclopenta[1,2-c]pyrazol-1-yl)acetamide] |  |  | 91% | 5.19 µM |
| Cn1nc(NS(C)(=O)=O)c2c(Cl)ccc(-c3cc(-c4cnn(C5COC5)c4)cnc3[C@H](Cc3cc(F)cc(F)c3)NC(=O)Cn3nc(C(F)F)c4c3C(F)(F)[C@@H]3C[C@H]43)c21 [Compound 93D, N—((S)-1-(3-(4-chloro-1-methyl-3-(methylsulfonamido)-1H-indazol-7-yl)-5-(1-(oxetan-3-yl)-1H-pyrazol-4-yl)pyridin-2-yl)-2-(3,5-difluorophenyl)ethyl)-2-((3bS,4aR)-3-(difluoromethyl)-5,5-difluoro-3b,4,4a,5-tetrahydro-1H-cyclopropa[3,4]cyclopenta[1,2-c]pyrazol-1-yl)acetamide] |  |  | 93% | 18.3 µM |
| Cn1nc(NS(C)(=O)=O)c2c(Cl)ccc(-c3ccc(C#CC4(O)CCOCC4)nc3[C@H](Cc3cc(F)cc(F)c3)NC(=O)Cn3nc(C(F)(F)F)c4c3C(F)(F)[C@@H]3C[C@H]43)c21 [Compound 39, N—((S)-1-(3-(4-chloro-1-methyl-3-(methylsulfonamido)-1H-indazol-7-yl)-6-((4-hydroxytetrahydro-2H-pyran-4-yl)ethynyl)pyridin-2-yl)-2-(3,5-difluorophenyl)ethyl)-2-((3bS,4aR)-5,5-difluoro-3-(trifluoromethyl)-3b,4,4a,5-tetrahydro-1H-cyclopropa[3,4]cyclopenta[1,2-c]pyrazol-1-yl)acetamide] |  |  | 95% | 10.7 µM |
